According to patent publication US9682990B2, “Alcohol-, diol-, and carbohydrate-substituted indenoisoquinolines as topoisomerase I inhibitors” (Purdue Research Foundation, priority 2011, dated 2017):

Key:
[1] = tested on: all human cancer cell lines successfully tested; assay: NCI-60 cell line assay, mean-graph midpoint; type: cell-based; settings: for GI50: Homo sapiens, Table 3, NCI-60, unit inferred, read-out: MGM GI50; for MGM (mean graph midpoint for growth inhibition): all human cancer cell lines tested, 10^−8 to 10^−4 molar
Method: Biological Results. The indenoisoquinoline analogues were tested for antiproliferative activity in the National Cancer Institute's Developmental Therapeutics Assay against cell lines derived from approximately 60 different human tumors. […] The cytotoxicities of the compounds to cultured cancer cells were measured in the National Cancer Institute's 60 cell line assay (a.k.a. NCI-60).

[2] = biological target: Tyrosyl-DNA phosphodiesterase 1 (TDP1) (Homo sapiens, UniProt Q9NUW8); assay: TDP1 inhibition; type: biochemical; settings: scores correspond to IC50 ranges
Description: Tyrosyl-DNA phosphodiesterase 1 (TDP1) is a DNA repair enzyme that repairs cytotoxic DNA damage induced by Top1 inhibitors.

[3] = tested on: HOP-62 (Lung); assay: NCI Developmental Therapeutics antiproliferative assay, HOP-62; type: cell-based, human; settings: Homo sapiens; HOP-62; 50% growth inhibition; read-out: Cytotoxicity (GI50) Lung HOP-62
Method: (§1) Biological Results. The indenoisoquinoline analogues were tested for antiproliferative activity in the National Cancer Institute's Developmental Therapeutics Assay against cell lines derived from approximately 60 different human tumors.

[4] = tested on: HCT-116 (Colon); assay: NCI Developmental Therapeutics antiproliferative assay, HCT-116; type: cell-based, human; settings: Homo sapiens; HCT-116; 50% growth inhibition; read-out: Cytotoxicity (GI50) Colon HCT-116
Method: as §1

[5] = tested on: SF-539 (CNS); assay: NCI Developmental Therapeutics antiproliferative assay, SF-539; type: cell-based, human; settings: Homo sapiens; SF-539; 50% growth inhibition; read-out: Cytotoxicity (GI50) CNS SF-539
Method: (§2) Biological Results. The indenoisoquinoline analogues were tested for antiproliferative activity in the National Cancer Institute's Developmental Therapeutics Assay against cell lines derived from approximately 60 different human tumors. […] Results are reported in Table 2 as GI50 values for selected cell lines, and overall antiproliferative potency is quantified as a mean-graph midpoint (MGM).

[6] = tested on: UACC-62 (Melanoma); assay: NCI Developmental Therapeutics antiproliferative assay, UACC-62; type: cell-based, human; settings: Homo sapiens; UACC-62; 50% growth inhibition; read-out: Cytotoxicity (GI50) Melanoma UACC-62
Method: as §1

[7] = tested on: OVCAR-3 (Ovarian); assay: NCI Developmental Therapeutics antiproliferative assay, OVCAR-3; type: cell-based, human; settings: Homo sapiens; OVCAR-3; 50% growth inhibition; read-out: Cytotoxicity (GI50) Ovarian OVCAR-3
Method: as §2

[8] = tested on: SN12C (Renal); assay: NCI Developmental Therapeutics antiproliferative assay, SN12C; type: cell-based, human; settings: Homo sapiens; SN12C; 50% growth inhibition; read-out: Cytotoxicity (GI50) Renal SN12C
Method: as §2

[9] = tested on: DU-145 (Prostate); assay: NCI Developmental Therapeutics antiproliferative assay, DU-145; type: cell-based, human; settings: Homo sapiens; DU-145; 50% growth inhibition; read-out: Cytotoxicity (GI50) Prostate DU-145
Method: as §1

[10] = tested on: MCF7 (Breast); assay: NCI Developmental Therapeutics antiproliferative assay, MCF7; type: cell-based, human; settings: Homo sapiens; MCF7; 50% growth inhibition; read-out: Cytotoxicity (GI50) Breast MCF7
Method: as §2

[11] = biological target: T1, Human recombinant Top1 (Homo sapiens, UniProt P11387); assay: Top1-mediated DNA cleavage assay; settings: scale relative to 1 μM camptothecin
T1 sequence (P11387 1-765): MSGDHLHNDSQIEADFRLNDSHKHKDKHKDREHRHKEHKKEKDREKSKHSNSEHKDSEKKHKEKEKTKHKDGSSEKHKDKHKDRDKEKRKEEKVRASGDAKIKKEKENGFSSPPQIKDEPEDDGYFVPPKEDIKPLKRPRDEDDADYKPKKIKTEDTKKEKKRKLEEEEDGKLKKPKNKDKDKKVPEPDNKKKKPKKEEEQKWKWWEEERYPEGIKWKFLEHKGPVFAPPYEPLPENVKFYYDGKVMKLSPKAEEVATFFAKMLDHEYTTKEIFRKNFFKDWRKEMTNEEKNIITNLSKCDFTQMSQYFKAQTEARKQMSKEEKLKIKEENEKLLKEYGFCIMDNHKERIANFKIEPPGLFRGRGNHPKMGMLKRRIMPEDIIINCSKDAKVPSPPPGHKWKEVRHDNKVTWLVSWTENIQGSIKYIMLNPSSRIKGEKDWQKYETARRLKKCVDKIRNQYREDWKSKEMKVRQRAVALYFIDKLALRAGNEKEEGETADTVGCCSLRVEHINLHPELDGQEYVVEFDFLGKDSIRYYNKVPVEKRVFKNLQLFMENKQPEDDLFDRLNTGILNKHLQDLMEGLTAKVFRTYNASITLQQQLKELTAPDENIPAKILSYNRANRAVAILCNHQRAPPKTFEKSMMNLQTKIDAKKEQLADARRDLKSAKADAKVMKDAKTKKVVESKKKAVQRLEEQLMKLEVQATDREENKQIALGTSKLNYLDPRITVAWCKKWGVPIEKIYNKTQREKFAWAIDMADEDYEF

[12] = tested on: cell lines derived from approximately 60 different human tumors; assay: NCI initial one-dose screening assay; type: cell-based; settings: percentage of cell growth, one-dose assay at 10 μM

Chain of Tyrosyl-DNA phosphodiesterase 1 (TDP1) (Q9NUW8 whole entry, species assumed): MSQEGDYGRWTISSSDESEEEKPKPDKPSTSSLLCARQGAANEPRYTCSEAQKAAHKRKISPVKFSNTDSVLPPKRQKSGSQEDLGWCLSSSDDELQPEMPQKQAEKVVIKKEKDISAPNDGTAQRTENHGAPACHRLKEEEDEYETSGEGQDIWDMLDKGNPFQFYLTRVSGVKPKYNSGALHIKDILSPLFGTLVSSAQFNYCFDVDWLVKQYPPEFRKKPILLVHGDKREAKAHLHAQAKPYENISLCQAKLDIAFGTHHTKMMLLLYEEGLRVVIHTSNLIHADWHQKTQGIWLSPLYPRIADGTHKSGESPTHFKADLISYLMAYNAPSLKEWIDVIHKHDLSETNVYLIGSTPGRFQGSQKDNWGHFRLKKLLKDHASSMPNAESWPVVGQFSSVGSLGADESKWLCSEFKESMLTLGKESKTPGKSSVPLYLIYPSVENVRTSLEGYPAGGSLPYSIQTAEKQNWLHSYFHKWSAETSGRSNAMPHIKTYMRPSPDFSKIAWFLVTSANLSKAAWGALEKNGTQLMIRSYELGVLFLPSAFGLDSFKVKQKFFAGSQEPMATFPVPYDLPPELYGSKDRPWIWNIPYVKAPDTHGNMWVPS

Structure (SMILES) | IC50 [2] | GI50 [1] | GI50 [3] | GI50 [5] | GI50 [6] | GI50 [7] | GI50 [8] | GI50 [9] | GI50 [10] | MGM (mean graph midpoint for growth inhibition) [1] | other results
O=C1c2ccccc2-c2c1c1ccccc1c(=O)n2C[C@@H](O)CO [Compound 12b, (2′R)-5,6-Dihydro-6-[(2′,3′-dihydroxypropyl)]-5,11-dioxo-11H-indeno[1,2-c]isoquinoline] |  |  | 3.79 µM | 5.72 µM | 4.36 µM | 16.1 µM | 3.77 µM | 2.34 µM | 3.04 µM | 6.24 ± 0.22 µM | GI50 [4]: 4.47 µM; melting point: 200 to 205 °C
O=C1c2ccccc2-c2c1c1ccccc1c(=O)n2C[C@H](O)CO [Compound 12a, (2′S)-5,6-Dihydro-6-[(2′,3′-dihydroxypropyl)]-5,11-dioxo-11H-indeno[1,2-c]isoquinoline] |  |  | 5.01 µM | 7.41 µM | 5.37 µM | 14.5 µM | 6.92 µM | 5.75 µM | 4.9 µM | 8.71 µM | Top1 inhibitory activity [11]: +++ (+++, between 75% and 95% activity)
O=C1c2cc3c(cc2-c2c1c1ccc(Cl)cc1c(=O)n2C[C@H](O)[C@H](O)[C@H](O)CO)OCO3 | > 111 µM |  |  |  |  |  |  |  |  |  | 
O=C1c2cc3c(cc2-c2c1c1ccc(F)cc1c(=O)n2C[C@H](O)CO)OCO3 | > 111 µM | 0.105 µM |  |  |  |  |  |  |  |  | 
O=C1c2cc3c(cc2-c2c1c1ccc(Cl)cc1c(=O)n2C[C@H](O)CO)OCO3 | > 111 µM | 0.042 µM |  |  |  |  |  |  |  |  | 
O=C1c2cc3c(cc2-c2c1c1cc(F)c(F)cc1c(=O)n2C[C@H](O)CO)OCO3 | > 111 µM | 0.068 µM |  |  |  |  |  |  |  |  | 
O=C1c2ccccc2-c2c1c1ccc([N+](=O)[O-])cc1c(=O)n2C[C@H](O)[C@@H](O)[C@H](O)[C@H](O)CO [Compound 19, (2′S,3′R,4′R,5′R)-5,6-Dihydro-6-(2′,3′,4′,5′,6′-pentahydroxyhexyl)-3-nitro-5,11-dioxo-11H-indeno[1,2-c]isoquinoline] |  |  | 7.35 µM | 2.61 µM | 2.98 µM | 4.26 µM | 17.7 µM | 4.76 µM | 0.88 µM | 4.60 ± 0.53 µM | GI50 [4]: 5.08 µM; Growth Percent [12]: 58.05%

The next lines start with results.

IC50 [2] | Structure (SMILES) | GI50 [1] | GI50 [3] | GI50 [5] | GI50 [6] | GI50 [7] | GI50 [8] | GI50 [9] | GI50 [10] | MGM (mean graph midpoint for growth inhibition) [1] | other results
> 111 µM | O=C1c2cc3c(cc2-c2c1c1ccc(F)cc1c(=O)n2C[C@H](O)[C@@H](O)[C@H](O)CO)OCO3 | 0.078 µM |  |  |  |  |  |  |  |  | 
> 111 µM | O=C1c2cc3c(cc2-c2c1c1cc(Cl)c(Cl)cc1c(=O)n2C[C@H](O)CO)OCO3 | 0.013 µM |  |  |  |  |  |  |  |  | 
